Reference: patent US20230085307A1, “PYRIDAZINONE COMPOUND AND HERBICIDE” (NISSAN CHEMICAL CORPORATION, priority 2019, published 2023)

Tests used:
[1] = test system: late watergrass; assay: Test Example 1: herbicidal activity, application before weed generation under submerged conditions (Table 16, symbol A); type: in vivo, late watergrass (Echinochloa oryzicola); conditions: amount of applied herbicide 320 g/ha
How it was run: (§1)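 Submerged Wagner pots (alluvial soil, 4 cm water) sown with weed seeds and planted with 2.5-leaf rice seedlings; emulsifiable concentrate diluted in water applied to water surface on sowing day. Held in greenhouse at 25-30 °C; injury scored 0-5 by herbicidal rate after three weeks.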

[2] = test system: Japanese bulrush; assay: Test Example 1: herbicidal activity, application before weed generation under submerged conditions (Table 16, symbol B); type: in vivo, Japanese bulrush (Schoenoplectus juncoides); conditions: amount of applied herbicide 320 g/ha
How it was run: as §1

[3] = test system: oval-leafed pondweed; assay: Test Example 1: herbicidal activity, application before weed generation under submerged conditions (Table 16, symbol C); type: in vivo, oval-leafed pondweed (Monochoria vaginalis); conditions: amount of applied herbicide 320 g/ha
How it was run: as §1

[4] = test system: late watergrass; assay: Test Example 2: herbicidal activity, application during weed generation under submerged conditions (Table 17, symbol A); type: in vivo, late watergrass (Echinochloa oryzicola); conditions: AAH 320 g/ha; application during weed generation, submerged conditions
How it was run: (§2)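 Mixed weed seedlings in alluvial soil under a 4 cm water layer, greenhouse-grown at 25–30° C. Compound given as a diluted emulsion into the floodwater at the 1–2 leaf stage; response graded after three weeks.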

[5] = test system: oval-leafed pondweed; assay: Test Example 2: herbicidal activity, application during weed generation under submerged conditions (Table 17, symbol C); type: in vivo, oval-leafed pondweed (Monochoria vaginalis); conditions: AAH 320 g/ha; application during weed generation, submerged conditions
How it was run: as §2

[6] = test system: barnyard grass; assay: Test Example 3: herbicidal effect by foliage application, Wagner pot (Table 18, symbol H); type: in vivo, barnyard grass (Echinochloa crus-galli); conditions: for herbicidal effect on H: barnyard grass / Herbicidal effect on H (barnyard grass), foliage application: amount of applied herbicide 320 g/ha
How it was run: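 Plants were sown in alluvial soil held under 0.1–0.5 cm standing water and grown 14 days in a greenhouse at 25–30 °C. An emulsifiable formulation, water-diluted to the set dose, was then sprayed onto the foliage, and effects were scored three weeks later using previously defined criteria.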

[7] = test system: southern crabgrass; assay: Test Example 4: herbicidal effect by soil treatment (Table 19, symbol F); type: in vivo, southern crabgrass (Digitaria ciliaris); conditions: amount of applied herbicide 320 g/ha
How it was run: (§3)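 Seeds were sown in sterilized diluvial soil and covered with about 1.5 cm of soil. An emulsion formulation diluted with water to a predetermined herbicide amount was sprayed evenly onto the soil surface. Plants grew in a greenhouse at 25° C. to 30° C., and the effect was scored three weeks after application using criteria from an earlier test.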

[8] = test system: wild oat; assay: Test Example 4: herbicidal effect by soil treatment (Table 19, symbol I); type: in vivo, wild oat (Avena fatua); conditions: amount of applied herbicide 320 g/ha
How it was run: as §3

[9] = test system: windgrass; assay: Test Example 4: herbicidal effect by soil treatment (Table 19, symbol L); type: in vivo, windgrass (Apera spica-venti); conditions: amount of applied herbicide 320 g/ha
How it was run: as §3

[10] = test system: velvetleaf; assay: Test Example 4: herbicidal effect by soil treatment (Table 19, symbol M); type: in vivo, velvetleaf (Abutilon theophrasti); conditions: amount of applied herbicide 320 g/ha
How it was run: as §3

[11] = test system: redroot pigweed; assay: Test Example 4: herbicidal effect by soil treatment (Table 19, symbol N); type: in vivo, redroot pigweed (Amaranthus retroflexus); conditions: amount of applied herbicide 320 g/ha
How it was run: as §3

[12] = test system: chickweed; assay: Test Example 4: herbicidal effect by soil treatment (Table 19, symbol P); type: in vivo, common chickweed (Stellaria media); conditions: amount of applied herbicide 320 g/ha
How it was run: as §3

[13] = test system: false cleavers; assay: Test Example 4: herbicidal effect by soil treatment (Table 19, symbol Q); type: in vivo, false cleavers (Galium spurium); conditions: amount of applied herbicide 320 g/ha
How it was run: as §3

[14] = test system: persian speedwell; assay: Test Example 4: herbicidal effect by soil treatment (Table 19, symbol R); type: in vivo, Persian speedwell (Veronica persica); conditions: amount of applied herbicide 320 g/ha
How it was run: as §3

[15] = test system: southern crabgrass; assay: Test Example 5: herbicidal effect by foliage application, plastic box (Table 20, symbol F); type: in vivo, southern crabgrass (Digitaria ciliaris); conditions: foliage application, 320 g/ha, three weeks after application
How it was run: (§4)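 Plants sown in sterilized diluvial soil and grown 14 days in a greenhouse at 25° C to 30° C, then sprayed on the foliage with the compound's emulsion diluted in water to a predetermined herbicide amount. Injury to weeds and crops scored three weeks after application on a visual rating scale.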

[16] = test system: green foxtail; assay: Test Example 5: herbicidal effect by foliage application, plastic box (Table 20, symbol G); type: in vivo, green foxtail (Setaria viridis); conditions: foliage application, 320 g/ha, three weeks after application
How it was run: as §4

[17] = test system: redroot pigweed; assay: Test Example 5: herbicidal effect by foliage application, plastic box (Table 20, symbol N); type: in vivo, redroot pigweed (Amaranthus retroflexus); conditions: foliage application, 320 g/ha, three weeks after application
How it was run: as §4

Row | SMILES | Herbicidal effect, A: late watergrass [1] | Herbicidal effect, B: Japanese bulrush [2] | Herbicidal effect, C: oval-leafed pondweed [3] | herbicidal effect rating, A: late watergrass [4] | herbicidal effect rating, C: oval-leafed pondweed [5] | herbicidal effect on H: barnyard grass [6] | herbicidal effect, F: southern crabgrass [7] | herbicidal effect, I: wild oat [8] | herbicidal effect, L: windgrass [9] | herbicidal effect, M: velvetleaf [10] | F: southern crabgrass, herbicidal effect grade [15] | G: green foxtail, herbicidal effect grade [16] | N: redroot pigweed, herbicidal effect grade [17] | I: wild oat, herbicidal effect grade [8] | L: windgrass, herbicidal effect grade [9] | M: velvetleaf, herbicidal effect grade [10] | N: redroot pigweed, herbicidal effect grade [11] | P: chickweed, herbicidal effect grade [12] | Q: false cleavers, herbicidal effect grade [13] | R: persian speedwell, herbicidal effect grade [14] | further results
1 | CCCC(=O)Oc1c(C)nn(C)c(=O)c1-c1c(-c2ccccc2OC)sc2cc(F)ccc12 [3-004] | 5 (Herbicidal rate of 90% or more (almost completely withered)) | 3 (Herbicidal rate of 40% or more and less than 70%) | 3 (Herbicidal rate of 40% or more and less than 70%) | 4 (Herbicidal rate of 70% or more and less than 90%) | 4 (Herbicidal rate of 70% or more and less than 90%) | 5 (Herbicidal rate of 90% or more (almost completely withered)) | 4 (Herbicidal rate of 70% or more and less than 90%) | 3 (Herbicidal rate of 40% or more and less than 70%) | 5 (Herbicidal rate of 90% or more (almost completely withered)) | 4 (Herbicidal rate of 70% or more and less than 90%) | 3 (Herbicidal rate of 40% or more and less than 70%) | 4 (Herbicidal rate of 70% or more and less than 90%) | 5 (Herbicidal rate of 90% or more (almost completely withered)) |  |  |  |  |  |  |  | herbicidal effect, N: redroot pigweed [11]: 5 (Herbicidal rate of 90% or more (almost completely withered)); herbicidal effect, P: chickweed [12]: 5 (Herbicidal rate of 90% or more (almost completely withered)); herbicidal effect, Q: false cleavers [13]: 5 (Herbicidal rate of 90% or more (almost completely withered)); herbicidal effect, R: persian speedwell [14]: 4 (Herbicidal rate of 70% or more and less than 90%)
2 | COc1ccc(-c2sc3cc(F)ccc3c2-c2c(O)c(C)nn(C)c2=O)cc1 [3-005] | 4 (Herbicidal rate of 70% or more and less than 90%) | 4 (Herbicidal rate of 70% or more and less than 90%) | 4 (Herbicidal rate of 70% or more and less than 90%) | 3 (Herbicidal rate of 40% or more and less than 70%) | 4 (Herbicidal rate of 70% or more and less than 90%) | 5 (Herbicidal rate of 90% or more (almost completely withered)) | 0 (Herbicidal rate of 5% or less (almost no effect)) | 0 (Herbicidal rate of 5% or less (almost no effect)) | 0 (Herbicidal rate of 5% or less (almost no effect)) | 3 (Herbicidal rate of 40% or more and less than 70%) | 3 (Herbicidal rate of 40% or more and less than 70%) | 4 (Herbicidal rate of 70% or more and less than 90%) | 5 (Herbicidal rate of 90% or more (almost completely withered)) |  |  |  |  |  |  |  | herbicidal effect, N: redroot pigweed [11]: 5 (Herbicidal rate of 90% or more (almost completely withered)); herbicidal effect, P: chickweed [12]: 5 (Herbicidal rate of 90% or more (almost completely withered)); herbicidal effect, Q: false cleavers [13]: 0 (Herbicidal rate of 5% or less (almost no effect)); herbicidal effect, R: persian speedwell [14]: 4 (Herbicidal rate of 70% or more and less than 90%)
3 | CCCC(=O)Oc1c(C)nn(C)c(=O)c1-c1c(-c2ccc(F)cc2OCC)sc2cc(OCC)ccc12 [3-096] | 5 (Herbicidal rate of 90% or more (almost completely withered)) | 5 (Herbicidal rate of 90% or more (almost completely withered)) | 5 (Herbicidal rate of 90% or more (almost completely withered)) | 4 (Herbicidal rate of 70% or more and less than 90%) | 4 (Herbicidal rate of 70% or more and less than 90%) |  |  |  |  |  | 5 (Herbicidal rate of 90% or more (almost completely withered)) | 4 (Herbicidal rate of 70% or more and less than 90%) | 5 (Herbicidal rate of 90% or more (almost completely withered)) | 0 (Herbicidal rate of 5% or less (almost no effect)) | 5 (Herbicidal rate of 90% or more (almost completely withered)) | 4 (Herbicidal rate of 70% or more and less than 90%) | 5 (Herbicidal rate of 90% or more (almost completely withered)) | 5 (Herbicidal rate of 90% or more (almost completely withered)) | 5 (Herbicidal rate of 90% or more (almost completely withered)) | 5 (Herbicidal rate of 90% or more (almost completely withered)) | herbicidal effect on barnyard grass (H) ([6]; 320 g/ha): 5 (Herbicidal rate of 90% or more (almost completely withered))
4 | CCOc1ccc(-c2oc3ccc(F)cc3c2-c2c(O)c(C)nn(C)c2=O)cc1 [9-021] | 5 (Herbicidal rate of 90% or more (almost completely withered)) | 5 (Herbicidal rate of 90% or more (almost completely withered)) | 5 (Herbicidal rate of 90% or more (almost completely withered)) | 4 (Herbicidal rate of 70% or more and less than 90%) | 4 (Herbicidal rate of 70% or more and less than 90%) |  |  |  |  |  |  |  |  | 0 (Herbicidal rate of 5% or less (almost no effect)) | 3 (Herbicidal rate of 40% or more and less than 70%) | 3 (Herbicidal rate of 40% or more and less than 70%) | 5 (Herbicidal rate of 90% or more (almost completely withered)) | 0 (Herbicidal rate of 5% or less (almost no effect)) | 0 (Herbicidal rate of 5% or less (almost no effect)) | 5 (Herbicidal rate of 90% or more (almost completely withered)) | Herbicidal effect on H (barnyard grass), foliage application [6]: 3 (Herbicidal rate of 40% or more and less than 70%); F: southern crabgrass, herbicidal effect grade [7]: 4 (Herbicidal rate of 70% or more and less than 90%); herbicidal effect on southern crabgrass (F) [15]: 4 (Herbicidal rate of 70% or more and less than 90%); herbicidal effect on green foxtail (G) [16]: 4 (Herbicidal rate of 70% or more and less than 90%)
5 | CCCOc1ccc(-c2oc3ccc(F)cc3c2-c2c(O)c(C)nn(C)c2=O)cc1 [9-023] | 5 (Herbicidal rate of 90% or more (almost completely withered)) | 5 (Herbicidal rate of 90% or more (almost completely withered)) | 5 (Herbicidal rate of 90% or more (almost completely withered)) | 5 (Herbicidal rate of 90% or more (almost completely withered)) | 5 (Herbicidal rate of 90% or more (almost completely withered)) |  |  |  |  |  |  |  |  | 0 (Herbicidal rate of 5% or less (almost no effect)) | 3 (Herbicidal rate of 40% or more and less than 70%) | 3 (Herbicidal rate of 40% or more and less than 70%) | 5 (Herbicidal rate of 90% or more (almost completely withered)) | 0 (Herbicidal rate of 5% or less (almost no effect)) | 0 (Herbicidal rate of 5% or less (almost no effect)) | 4 (Herbicidal rate of 70% or more and less than 90%) | Herbicidal effect on H (barnyard grass), foliage application [6]: 5 (Herbicidal rate of 90% or more (almost completely withered)); F: southern crabgrass, herbicidal effect grade [7]: 4 (Herbicidal rate of 70% or more and less than 90%); herbicidal effect on southern crabgrass (F) [15]: 4 (Herbicidal rate of 70% or more and less than 90%); herbicidal effect on green foxtail (G) [16]: 5 (Herbicidal rate of 90% or more (almost completely withered))
